Source: patent publication US20230212526A1, “PLURIPOTENT STEM CELL-DERIVED HEART ORGANOID” (Board of Trustees of Michigan State University, priority 2020, published 2023)

Legend:
[1] = test system: human heart organoids (hHOs); experiment: Second CHIR99021 exposure on day 7: epicardial cell and cardiomyocyte formation in hHOs (confocal quantification); assay type: cell-based
Protocol: Self-assembling hHO differentiation. Accutase® (Innovative Cell Technologies) was used to dissociate PSCs for spheroid formation. After dissociation, cells were centrifuged at 300 g for 5 minutes and resuspended in Essential 8™ Flex medium containing 2 μM ROCK inhibitor Thiazovivin (Millipore Sigma). hPSCs were then counted using a Moxi Cell Counter (Orflo Technologies) and seeded at 10000 cells/well in round bottom ultra-low attachment 96-well plates (Costar) on day −2. The plate was then centrifuged at 100 g for 3 minutes and placed in an incubator at 37° C. and 5% CO2. After 24 hours (day −1), 50 μl of media was carefully removed from each well and 200 μl of fresh Essential 8™ Flex medium was added for a final volume of 250 μl/well. The plate was returned to the incubator for a further 24 hours. On day 0, 166 μl (approximately ⅔ of total well volume) of media was removed from each well and 166 μl of RPMI 1640 with B27™ Supplement, minus insulin (Gibco) containing CHIR99021 (Selleck) was added at a final concentration of 4 μM/well along with BMP4 at 0.36 pM (1.25 ng/ml) and ActA at 0.08 pM (1 ng/ml) for 24 hours. On day 1, 166 μl of media was removed and replaced with fresh RPMI 1640 with B27™ Supplement, minus insulin. On day 2, RPMI 1640 with B27™ Supplement, minus insulin containing Wnt-059 (Selleck) was added for a final concentration of 2 μM Wnt-059, and the samples were incubated for 48 hours. The media was changed on day 4 and day 6. On day 6, media was changed to RPMI 1640 with B27™ Supplement (Gibco). […] Subsequently, media was changed every 48 hours until organoids were ready for analysis. Diabetic conditions were simulated by using basal RPMI media with 11.1 mM glucose and 58 nM insulin and compared with control media containing 3.5 mM glucose and 170 pM insulin.
Immunofluorescence. hHOs were transferred to microcentrifuge tubes (Eppendorf) using a cut 1000-μL pipette tip to avoid disruption to the organoids and fixed in 4% paraformaldehyde solution (dissolved in PBS) for 30 minutes at room temperature. […]
(§1) Confocal microscopy and image analysis. Samples were imaged using two confocal laser scanning microscopes (Nikon Instruments A1 Confocal Laser Microscope; Zeiss LSM 880 NLO Confocal Microscope System) and images were analyzed using Fiji (hypertext transfer protocol secure//imagej.net/Fiji). For tissue region quantification in the organoids, DAPI positive cells were used for normalization against the target cell marker of interest across three z-planes throughout each organoid. […]

[2] = test system: human heart organoids (hHOs); experiment: Cardiomyocyte differentiation in hHOs after initial CHIR99021 exposure (day 0, 24 hours), confocal TNNT2 quantification and beating; assay type: cell-based; conditions: for TNNT2+ cells (cardiomyocyte content): read at day 15
Protocol: Self-assembling hHO differentiation. Accutase® (Innovative Cell Technologies) was used to dissociate PSCs for spheroid formation. After dissociation, cells were centrifuged at 300 g for 5 minutes and resuspended in Essential 8™ Flex medium containing 2 μM ROCK inhibitor Thiazovivin (Millipore Sigma). hPSCs were then counted using a Moxi Cell Counter (Orflo Technologies) and seeded at 10000 cells/well in round bottom ultra-low attachment 96-well plates (Costar) on day −2. The plate was then centrifuged at 100 g for 3 minutes and placed in an incubator at 37° C. and 5% CO2. After 24 hours (day −1), 50 μl of media was carefully removed from each well and 200 μl of fresh Essential 8™ Flex medium was added for a final volume of 250 μl/well. The plate was returned to the incubator for a further 24 hours. […] On day 1, 166 μl of media was removed and replaced with fresh RPMI 1640 with B27™ Supplement, minus insulin. On day 2, RPMI 1640 with B27™ Supplement, minus insulin containing Wnt-059 (Selleck) was added for a final concentration of 2 μM Wnt-059, and the samples were incubated for 48 hours. The media was changed on day 4 and day 6. On day 6, media was changed to RPMI 1640 with B27™ Supplement (Gibco). On day 7, a second 4 μM CHIR99021 exposure was conducted for 1 hour in RPMI 1640 with B27™ Supplement. Subsequently, media was changed every 48 hours until organoids were ready for analysis. Diabetic conditions were simulated by using basal RPMI media with 11.1 mM glucose and 58 nM insulin and compared with control media containing 3.5 mM glucose and 170 pM insulin.
Immunofluorescence. hHOs were transferred to microcentrifuge tubes (Eppendorf) using a cut 1000-μL pipette tip to avoid disruption to the organoids and fixed in 4% paraformaldehyde solution (dissolved in PBS) for 30 minutes at room temperature. Fixation was followed by three washes in PBS-Glycine (20 mM) and incubation in blocking/permeabilization solution (10% Donkey Normal Serum, 0.5% Triton™ X-100, 0.5% BSA in PBS) on a thermal mixer (Thermo Scientific) at 300 RPM at 4° C. overnight. hHOs were then washed three times in PBS and incubated with primary antibodies (see Table 1) in Antibody Solution (1% Donkey Normal Serum, 0.5% Triton™ X-100, 0.5% BSA in PBS) on a thermal mixer at 300 RPM at 4° C. for 24 hours. […]
as §1

[3] = test system: FlipGFP transgenic iPSC-L1 derived hHOs; experiment: FlipGFP apoptosis reporter in hHOs (effector caspase activation); assay type: cell-based, human; conditions: 5 μM doxorubicin, positive control
Protocol: Lentiviral transduction. FlipGFP plasmid (Vector Builder) was transduced into a L1 iPSC line using a ZymoPURE™ II Plasmid Midiprep Kit (Fisher Scientific) according to manufacturer instructions. HEK293t were cultured in D10 media (DMEM+10% FBS+1% P/S) and later switched with reduced serum OptiMem™ (Gibco, Fisher Scientific) for 1 hour. Lipofectamine mixture (100 μl Lipofectamine 2000 (Thermo Fisher Scientific)+4 ml OptiMem™ sitting at room temperature for 5 minutes) was mixed with PLUS™ reagent mixture (200 μl PLUS™ reagent (Invitrogen, Fisher Scientific)+4 ml OptiMem™+20 μg lentiCRISPR plasmid+10 μg pMD2.gpVSVg (or pVSVgpMD2.g)+15 μg psPAX2) and was then added to the HEK293t cells and allowed to incubate at 37° C. for 6 hours. Following this, the media was changed to 30 ml D10+1% BSA per flask, without antibiotics. After 48-60 hours, the media was collected and centrifuged at 3000 rpm at 4° C. for 10 minutes. The supernatant was transferred to an Amicon® Filter Unit (Millipore-Sigma) and spun in a tabletop centrifuge at 3200 g for 30 minutes at 4° C. The flow through was dumped, and the process was repeated. The concentrated virus was aliquoted and stored at −80° C. Virus aliquot and polybrene (Fisher Scientific) were thawed at 37° C. Virus and polybrene were delivered to iPSC-L1s at low- to mid-confluences and incubated overnight. […]

[4] = single 2 μM CHIR99021 for 1 hour on day 7, read at day 15

SMILES	formation of cardiac cell types other than epicardial cells (cardiomyocytes) ([1]; high concentrations or long exposure times of second exposure)	formation of proepicardium and epicardial cells ([1]; second exposure on day 7, 2-8 μM, 1-48 hours)	cardiomyocytes (TNNT2+ area) [1, 4] [%]	epicardial cells (WT1+/TJP1+ area) [1, 4]	TNNT2+ cells (cardiomyocyte content) ([2]; 4 μM CHIR99021 on day 0 for 24 hours) [%]	functional properties (beats per minute, percentage of beating hHOs) ([2]; 4 μM versus 6.6 μM and 8 μM CHIR99021)	TNNT2+ cells (cardiomyocyte content) ([2]; 6.6 μM CHIR99021 on day 0 for 24 hours) [%]	TNNT2+ cells (cardiomyocyte content) ([2]; 8 μM CHIR99021 on day 0 for 24 hours) [%]	apoptosis (FlipGFP fluorescence) [3]	apoptosis (FlipGFP fluorescence) ([3]; listed as Doxorubicin)
Cc1c[nH]c(-c2cnc(NCCNc3ccc(C#N)cn3)nc2-c2ccc(Cl)cc2Cl)n1 [CHIR99021]	marked inhibition	robustly promoted the formation of proepicardium and epicardial cells	60	10-20%	64±5	best functional properties of the three concentrations	9.6±5	2.4±2		
COc1cccc2c1C(=O)c1c(O)c3c(c(O)c1C2=O)C[C@@](O)(C(=O)CO)C[C@@H]3O[C@H]1C[C@H](N)[C@H](O)[C@H](C)O1 [doxorubicin]									high apoptosis	evident signs of cell death
